How the values were obtained:
[1] = target: T1, WEE1 (Homo sapiens, UniProt P30291+Q96SW2); assay: Western-blot assay, substrate protein degradation in hPBMCs: WEE1; type: cell-based; details: 24 hours of compound treatment, 50 nM and 500 nM
T1 construct: effects of the compounds of the present disclosure on the expression of target proteins in cells; endogenous in cells; host or cells: human PBMCs (hPBMCs)

[2] = target: T2, GSPT1 (Homo sapiens, UniProt P15170+Q96SW2); assay: Western-blot assay, substrate protein degradation in hPBMCs: GSPT1; type: cell-based; details: 24 hours of compound treatment, 50 nM and 500 nM
T2 construct: effects of the compounds of the present disclosure on the expression of target proteins in cells; endogenous in cells; host or cells: human PBMCs (hPBMCs)

[3] = tested on: MM.1S; assay: Cell viability assay (CellTiter-Meiluncell Luminescent), tumor cell proliferation, MM.1S; details: Homo sapiens, MM1.S, 96 h; for inhibition at 0.01 µM: read-out: Inhibition Rate at 10 nM (%); for inhibition at 0.5 µM: read-out: Inhibition Rate at 500 nM (%)
[4] = tested on: H2228; assay: Cell viability assay (CellTiter-Meiluncell Luminescent), tumor cell proliferation, H2228; details: Homo sapiens, NCI-H2228, 96 h; for inhibition at 0.01 µM: read-out: Inhibition Rate at 10 nM (%); for inhibition at 0.5 µM: read-out: Inhibition Rate at 500 nM (%)
[5] = target: T3, IKZF2 (Homo sapiens, UniProt Q96SW2+Q9UKS7); assay: Western-blot assay, substrate protein degradation in hPBMCs: IKZF2; type: cell-based; details: 24 hours of compound treatment, 50 nM and 500 nM
T3 construct: effects of the compounds of the present disclosure on the expression of target proteins in cells; endogenous in cells; host or cells: human PBMCs (hPBMCs)

[6] = target: T4, IKZF1 (Homo sapiens, UniProt Q13422+Q96SW2); assay: Western-blot assay, substrate protein degradation in hPBMCs: IKZF1; type: cell-based; details: 24 hours of compound treatment, 50 nM and 500 nM
T4 construct: effects of the compounds of the present disclosure on the expression of target proteins in cells; endogenous in cells; host or cells: human PBMCs (hPBMCs)

[7] = tested on: MDA-MB-231; assay: Cell viability assay (CellTiter-Meiluncell Luminescent), tumor cell proliferation, MDA-MB-231; details: Homo sapiens, MDA-MB-231, 96 h; for inhibition at 0.01 µM: read-out: Inhibition Rate at 10 nM (%); for inhibition at 0.5 µM: read-out: Inhibition Rate at 500 nM (%)
Method: The tumor cells used herein were cultured in a cell culture medium listed in table 2 at 37°C in an incubator with 5% CO2. Prior to experimentation, all cell lines used were correctly identified by STR profiling, and tested negative for mycoplasma contamination using a mycoplasma detection kit through routine screenings.
On the following day, the test compounds of the present disclosure were subjected to serial dilution. […] Subsequently, 0.5 µL of the test compound dilution was transferred into the 96-well plate containing the cells, with each well containing 100 µL of cell culture medium. […] Into the 96-well plate, the diluted test compounds and corresponding detection reagents were added, resulting in final test compound concentrations of 500 nM and 10 nM, respectively. The experimental procedure is described below using the diluted 2 µM test compound as an example.
After the cells were treated with the compounds of the present disclosure for a specified period, the cell viability assay reagent was added to the culture medium according to the kit's instructions to determine cell viability. […] All controls were treated using the same procedure as the compounds of the present disclosure. The growth inhibition curves for the compounds of the present disclosure were plotted using Prism GraphPad software, and the IC50 values were calculated therefrom.

[8] = target: T5, IKZF3 (Homo sapiens, UniProt Q96SW2+Q9UKT9); assay: Western-blot assay, substrate protein degradation in hPBMCs: IKZF3; type: cell-based; details: 24 hours of compound treatment, 50 nM and 500 nM
T5 construct: effects of the compounds of the present disclosure on the expression of target proteins in cells; endogenous in cells; host or cells: human PBMCs (hPBMCs)

[9] = target: T6, CK1α (Homo sapiens, UniProt P48729+Q96SW2); assay: Western-blot assay, substrate protein degradation in hPBMCs: CK1α; type: cell-based; details: 24 hours of compound treatment, 50 nM and 500 nM
T6 construct: effects of the compounds of the present disclosure on the expression of target proteins in cells; endogenous in cells; host or cells: human PBMCs (hPBMCs)

[10] = tested on: MV-4-11; assay: Cell viability assay (CellTiter-Meiluncell Luminescent), tumor cell proliferation, MV-4-11; details: Homo sapiens, MV4-11, 96 h; for inhibition at 0.01 µM: read-out: Inhibition Rate at 10 nM (%); for inhibition at 0.5 µM: read-out: Inhibition Rate at 500 nM (%)
[11] = tested on: H292; assay: Cell viability assay (CellTiter-Meiluncell Luminescent), tumor cell proliferation, H292; details: Homo sapiens, NCI-H292, 96 h; for inhibition at 0.01 µM: read-out: Inhibition Rate at 10 nM (%); for inhibition at 0.5 µM: read-out: Inhibition Rate at 500 nM (%)

T6 sequence (P48729 whole entry): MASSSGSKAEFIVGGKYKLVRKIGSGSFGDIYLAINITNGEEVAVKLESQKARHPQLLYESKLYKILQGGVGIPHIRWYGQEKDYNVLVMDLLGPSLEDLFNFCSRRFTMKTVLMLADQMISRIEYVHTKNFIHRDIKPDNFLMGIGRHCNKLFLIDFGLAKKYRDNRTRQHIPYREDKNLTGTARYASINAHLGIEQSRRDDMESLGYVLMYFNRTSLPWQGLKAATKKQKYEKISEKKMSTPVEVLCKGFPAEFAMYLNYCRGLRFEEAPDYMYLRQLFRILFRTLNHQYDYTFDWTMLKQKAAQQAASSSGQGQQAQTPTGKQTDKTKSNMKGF
T6 sequence (Q96SW2 whole entry): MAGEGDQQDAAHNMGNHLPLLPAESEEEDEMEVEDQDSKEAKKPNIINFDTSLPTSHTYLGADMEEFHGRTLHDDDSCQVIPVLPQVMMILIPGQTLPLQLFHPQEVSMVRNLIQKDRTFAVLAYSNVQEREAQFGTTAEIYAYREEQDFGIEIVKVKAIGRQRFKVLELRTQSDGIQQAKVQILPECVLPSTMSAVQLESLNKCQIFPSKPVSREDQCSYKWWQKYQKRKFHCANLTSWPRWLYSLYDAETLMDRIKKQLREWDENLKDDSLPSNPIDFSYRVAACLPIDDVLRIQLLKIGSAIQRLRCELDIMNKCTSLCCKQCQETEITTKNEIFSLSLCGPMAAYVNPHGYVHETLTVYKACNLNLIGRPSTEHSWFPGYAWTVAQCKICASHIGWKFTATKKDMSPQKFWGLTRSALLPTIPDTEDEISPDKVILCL
T6 sequence (Q16531 whole entry partner): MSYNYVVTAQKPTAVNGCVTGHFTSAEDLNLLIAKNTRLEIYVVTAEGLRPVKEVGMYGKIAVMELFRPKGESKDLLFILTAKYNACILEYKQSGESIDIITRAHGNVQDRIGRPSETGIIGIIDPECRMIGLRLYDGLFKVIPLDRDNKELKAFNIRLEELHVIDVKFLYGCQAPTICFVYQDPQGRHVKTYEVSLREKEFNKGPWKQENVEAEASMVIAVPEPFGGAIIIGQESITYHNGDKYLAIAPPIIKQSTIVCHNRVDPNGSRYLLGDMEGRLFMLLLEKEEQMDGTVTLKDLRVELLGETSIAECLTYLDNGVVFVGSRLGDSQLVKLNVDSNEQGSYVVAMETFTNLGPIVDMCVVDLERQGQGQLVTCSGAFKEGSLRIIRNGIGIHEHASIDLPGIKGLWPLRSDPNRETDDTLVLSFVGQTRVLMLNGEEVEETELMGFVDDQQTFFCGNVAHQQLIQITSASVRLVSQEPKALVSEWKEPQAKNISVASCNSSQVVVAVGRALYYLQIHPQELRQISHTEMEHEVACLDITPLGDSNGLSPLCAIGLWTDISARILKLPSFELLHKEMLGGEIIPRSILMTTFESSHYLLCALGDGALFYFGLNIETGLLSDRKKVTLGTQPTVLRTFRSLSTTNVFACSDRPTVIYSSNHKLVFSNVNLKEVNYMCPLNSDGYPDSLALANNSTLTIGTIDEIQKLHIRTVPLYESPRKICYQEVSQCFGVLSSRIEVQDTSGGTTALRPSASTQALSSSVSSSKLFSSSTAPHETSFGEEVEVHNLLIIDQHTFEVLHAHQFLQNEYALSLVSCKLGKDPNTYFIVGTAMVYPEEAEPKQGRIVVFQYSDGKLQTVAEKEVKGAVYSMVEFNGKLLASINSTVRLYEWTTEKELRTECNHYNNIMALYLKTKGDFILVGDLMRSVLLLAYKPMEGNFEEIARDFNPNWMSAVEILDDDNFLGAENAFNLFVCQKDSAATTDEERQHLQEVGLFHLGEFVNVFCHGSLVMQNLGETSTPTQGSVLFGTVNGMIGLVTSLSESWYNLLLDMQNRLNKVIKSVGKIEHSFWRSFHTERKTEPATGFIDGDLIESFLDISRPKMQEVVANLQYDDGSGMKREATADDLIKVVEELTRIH
T1 sequence (P30291 whole entry): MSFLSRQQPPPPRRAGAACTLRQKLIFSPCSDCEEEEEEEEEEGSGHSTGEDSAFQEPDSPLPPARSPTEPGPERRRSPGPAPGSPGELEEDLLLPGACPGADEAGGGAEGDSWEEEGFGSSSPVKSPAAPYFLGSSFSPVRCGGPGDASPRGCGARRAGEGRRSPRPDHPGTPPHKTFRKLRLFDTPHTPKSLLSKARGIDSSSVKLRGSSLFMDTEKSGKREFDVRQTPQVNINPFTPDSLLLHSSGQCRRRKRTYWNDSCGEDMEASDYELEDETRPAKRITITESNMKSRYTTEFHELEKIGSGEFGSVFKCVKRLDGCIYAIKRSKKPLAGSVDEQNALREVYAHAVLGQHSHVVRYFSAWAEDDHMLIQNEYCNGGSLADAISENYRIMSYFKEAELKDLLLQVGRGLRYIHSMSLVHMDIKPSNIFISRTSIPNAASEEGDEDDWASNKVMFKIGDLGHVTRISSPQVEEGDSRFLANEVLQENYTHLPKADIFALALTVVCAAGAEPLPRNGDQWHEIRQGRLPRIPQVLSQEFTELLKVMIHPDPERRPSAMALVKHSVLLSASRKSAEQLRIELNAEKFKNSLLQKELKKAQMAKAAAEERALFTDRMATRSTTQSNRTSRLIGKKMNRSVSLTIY
T1 sequence (Q96SW2 whole entry): as the sequence (Q96SW2 whole entry) above
T1 sequence (Q16531 whole entry partner): as the sequence (Q16531 whole entry partner) above
T3 sequence (Q9UKS7 whole entry): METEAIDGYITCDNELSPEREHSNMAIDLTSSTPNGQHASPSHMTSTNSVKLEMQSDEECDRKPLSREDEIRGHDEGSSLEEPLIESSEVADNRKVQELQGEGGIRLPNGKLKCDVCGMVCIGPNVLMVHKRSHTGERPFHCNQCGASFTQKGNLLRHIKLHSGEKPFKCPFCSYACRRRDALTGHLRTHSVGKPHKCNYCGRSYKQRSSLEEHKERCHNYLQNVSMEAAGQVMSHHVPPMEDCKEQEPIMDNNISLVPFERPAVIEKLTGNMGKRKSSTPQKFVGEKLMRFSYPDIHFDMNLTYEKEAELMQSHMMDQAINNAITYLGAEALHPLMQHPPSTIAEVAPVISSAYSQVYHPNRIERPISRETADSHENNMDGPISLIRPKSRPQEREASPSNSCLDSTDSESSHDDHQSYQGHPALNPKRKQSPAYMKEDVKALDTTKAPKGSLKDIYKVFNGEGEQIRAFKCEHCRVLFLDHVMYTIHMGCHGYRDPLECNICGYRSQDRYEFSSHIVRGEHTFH
T3 sequence (Q96SW2 whole entry): as the sequence (Q96SW2 whole entry) above
T3 sequence (Q16531 whole entry partner): as the sequence (Q16531 whole entry partner) above
T2 sequence (P15170 whole entry): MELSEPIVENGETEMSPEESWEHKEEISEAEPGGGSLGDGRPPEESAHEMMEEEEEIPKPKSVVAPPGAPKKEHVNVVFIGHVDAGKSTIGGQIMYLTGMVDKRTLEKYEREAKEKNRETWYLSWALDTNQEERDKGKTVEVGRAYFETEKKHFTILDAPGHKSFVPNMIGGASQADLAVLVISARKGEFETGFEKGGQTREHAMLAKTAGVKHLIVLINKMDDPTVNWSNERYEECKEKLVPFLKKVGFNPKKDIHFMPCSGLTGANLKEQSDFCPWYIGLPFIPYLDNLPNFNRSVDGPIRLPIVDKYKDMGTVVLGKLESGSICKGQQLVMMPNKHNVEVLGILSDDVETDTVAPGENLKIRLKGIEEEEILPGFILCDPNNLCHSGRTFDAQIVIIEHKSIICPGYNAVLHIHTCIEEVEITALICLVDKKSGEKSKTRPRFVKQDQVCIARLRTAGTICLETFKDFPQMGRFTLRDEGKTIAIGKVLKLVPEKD
T2 sequence (Q96SW2 whole entry): as the sequence (Q96SW2 whole entry) above
T2 sequence (Q16531 whole entry partner): as the sequence (Q16531 whole entry partner) above
T5 sequence (Q9UKT9 whole entry): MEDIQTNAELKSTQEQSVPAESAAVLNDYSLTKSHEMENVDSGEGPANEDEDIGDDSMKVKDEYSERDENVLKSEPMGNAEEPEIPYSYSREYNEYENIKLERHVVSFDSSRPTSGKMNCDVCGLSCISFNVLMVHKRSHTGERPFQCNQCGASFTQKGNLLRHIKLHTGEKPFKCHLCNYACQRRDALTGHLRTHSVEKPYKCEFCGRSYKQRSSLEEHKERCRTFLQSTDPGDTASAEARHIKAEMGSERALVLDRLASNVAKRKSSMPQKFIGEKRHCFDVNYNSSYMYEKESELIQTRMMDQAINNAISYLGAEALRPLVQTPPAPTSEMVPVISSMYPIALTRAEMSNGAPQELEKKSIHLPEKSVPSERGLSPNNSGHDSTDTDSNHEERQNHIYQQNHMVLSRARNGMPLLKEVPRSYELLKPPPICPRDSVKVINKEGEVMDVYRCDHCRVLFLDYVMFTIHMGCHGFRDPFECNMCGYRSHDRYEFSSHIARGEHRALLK
T5 sequence (Q96SW2 whole entry): as the sequence (Q96SW2 whole entry) above
T5 sequence (Q16531 whole entry partner): as the sequence (Q16531 whole entry partner) above

Structure (SMILES)	substrate protein remaining % WEE1 [1]	substrate protein remaining % GSPT1 [2]	inhibition at 0.01 µM [3] [%]	inhibition at 0.5 µM [3] [%]	inhibition at 0.01 µM [4] [%]	inhibition at 0.5 µM [4] [%]	substrate protein remaining % IKZF2 [5]	substrate protein remaining % IKZF1 [6]	inhibition at 0.01 µM [7] [%]	inhibition at 0.5 µM [7] [%]	substrate protein remaining % IKZF3 [8]	substrate protein remaining % CK1α [9]	inhibition at 0.01 µM [10] [%]	inhibition at 0.5 µM [10] [%]	inhibition at 0.01 µM [11] [%]	inhibition at 0.5 µM [11] [%]
O=C1CCN(N2Cc3cc(CN4CC=C(c5cccc(Cl)c5Cl)CC4)ccc3C2=O)C(=O)N1 [GT-08054, 1-(5-((4-(2,3-dichlorophenyl)-3,6-dihydropyridin-1(2H)-yl)methyl)-1-oxoisoindolin-2-yl)dihydropyrimidine-2,4(1H,3H)-dione]	A (0% ≤ substrate protein remaining % ≤ 80%)	A (0% ≤ substrate protein remaining % ≤ 80%)	5 to 10	80 to 100	20 to 25	40 to 60	A (0% ≤ substrate protein remaining % ≤ 80%)	A (0% ≤ substrate protein remaining % ≤ 80%)	25 to 40	80 to 100	A (0% ≤ substrate protein remaining % ≤ 80%)	A (0% ≤ substrate protein remaining % ≤ 80%)	18 to 25	80 to 100	–	–
Cc1sc2ncnc(N3CCCN(Cc4ccc5c(c4)CN(N4CCC(=O)NC4=O)C5=O)CC3)c2c1C [GT-08062, 1-(5-((4-(5,6-dimethylthieno[2,3-d]pyrimidin-4-yl)-1,4-diazepan-1-yl)methyl)-1-oxoisoindolin-2-yl)dihydropyrimidine-2,4(1H,3H)-dione]	B (80%< substrate protein remaining %≤ 100%)	B (80%< substrate protein remaining %≤ 100%)	30 to 42	30 to 42	25 to 30	30 to 40	A (0% ≤ substrate protein remaining % ≤ 80%)	B (80%< substrate protein remaining %≤ 100%)	15 to 18	25 to 40	A (0% ≤ substrate protein remaining % ≤ 80%)	B (80%< substrate protein remaining %≤ 100%)	–	–	20 to 40	40 to 60
O=C1CCN(N2Cc3cc(CN4CCC(c5ncnc6sccc56)CC4)ccc3C2=O)C(=O)N1 [GT-08082, 1-(1-oxo-5-((4-(thieno[2,3-d]pyrimidin-4-yl)piperidin-1-yl)methyl)isoindolin-2-yl)dihydropyrimidine-2,4(1H,3H)-dione]	A (0% ≤ substrate protein remaining % ≤ 80%)	A (0% ≤ substrate protein remaining % ≤ 80%)	–	–	25 to 30	20 to 25	B (80%< substrate protein remaining %≤ 100%)	B (80%< substrate protein remaining %≤ 100%)	25 to 40	18 to 25	B (80%< substrate protein remaining %≤ 100%)	A (0% ≤ substrate protein remaining % ≤ 80%)	40 to 60	40 to 60	20 to 40	20 to 40
Cc1sc2ncnc(C3CCN(Cc4ccc5c(c4)CN(N4CCC(=O)NC4=O)C5=O)CC3)c2c1C [GT-08084, 1-(5-((4-(5,6-dimethylthieno[2,3-d]pyrimidin-4-yl)piperidin-1-yl)methyl)-1-oxoisoindolin-2-yl)dihydropyrimidine-2,4(1H,3H)-dione]	B (80%< substrate protein remaining %≤ 100%)	A (0% ≤ substrate protein remaining % ≤ 80%)	–	–	10 to 15	25 to 30	B (80%< substrate protein remaining %≤ 100%)	B (80%< substrate protein remaining %≤ 100%)	5 to 10	18 to 25	B (80%< substrate protein remaining %≤ 100%)	A (0% ≤ substrate protein remaining % ≤ 80%)	18 to 25	10 to 18	1 to 5	10 to 15
O=C1CCN(N2C(=O)c3ccc(CN4CCN(c5ncnc6sc(Br)cc56)CC4)cc3C2=O)C(=O)N1 [GT-08096, 5-((4-(6-bromothieno[2,3-d]pyrimidin-4-yl)piperazin-1-yl)methyl)-2-(2,4-dioxotetrahydropyrimidin-1(2H)-yl)isoindoline-1,3-dione]	A (0% ≤ substrate protein remaining % ≤ 80%)	A (0% ≤ substrate protein remaining % ≤ 80%)	–	–	30 to 40	20 to 25	B (80%< substrate protein remaining %≤ 100%)	B (80%< substrate protein remaining %≤ 100%)	25 to 40	18 to 25	B (80%< substrate protein remaining %≤ 100%)	A (0% ≤ substrate protein remaining % ≤ 80%)	30 to 40	30 to 40	40 to 60	20 to 40
Cc1nc(N2CCN(Cc3ccc4c(c3)C(=O)N(N3CCC(=O)NC3=O)C4=O)CC2)c2c(-c3ccccc3)csc2n1 [GT-08099, 2-(2,4-dioxotetrahydropyrimidin-1(2H)-yl)-5-((4-(2-methyl-5-phenylthieno[2,3-d]pyrimidin-4-yl)piperazin-1-yl)methyl)isoindoline-1,3-dione]	B (80%< substrate protein remaining %≤ 100%)	A (0% ≤ substrate protein remaining % ≤ 80%)	–	–	25 to 30	30 to 40	B (80%< substrate protein remaining %≤ 100%)	B (80%< substrate protein remaining %≤ 100%)	18 to 25	25 to 40	B (80%< substrate protein remaining %≤ 100%)	B (80%< substrate protein remaining %≤ 100%)	25 to 30	5 to 10	20 to 40	20 to 40
O=C1CCN(N2C(=O)c3ccc(CN4CCN(c5ncnc6sc7c(c56)CCCC7)CC4)cc3C2=O)C(=O)N1 [GT-08102, 2-(2,4-dioxotetrahydropyrimidin-1(2H)-yl)-5-((4-(5,6,7,8-tetrahydrobenzo[4,5]thieno[2,3-d]pyrimidin-4-yl)piperazin-1-yl)methyl)isoindoline-1,3-dione]	–	–	30 to 42	30 to 42	20 to 25	20 to 25	–	–	–	–	–	–	40 to 60	40 to 60	–	–
O=C1CCN(N2Cc3cc(CN4CCC(c5ncnc6sc7c(c56)CCC7)CC4)ccc3C2=O)C(=O)N1 [GT-08113, 1-(5-((4-(6,7-dihydro-5H-cyclopenta[4,5]thieno[2,3-d]pyrimidin-4-yl)piperidin-1-yl)methyl)-1-oxoisoindolin-2-yl)dihydropyrimidine-2,4(1H,3H)-dione]	B (80%< substrate protein remaining %≤ 100%)	A (0% ≤ substrate protein remaining % ≤ 80%)	–	–	20 to 25	25 to 30	B (80%< substrate protein remaining %≤ 100%)	B (80%< substrate protein remaining %≤ 100%)	25 to 40	40 to 60	B (80%< substrate protein remaining %≤ 100%)	A (0% ≤ substrate protein remaining % ≤ 80%)	30 to 40	10 to 18	20 to 40	20 to 40
O=C1CCN(N2Cc3cc(CN4CCC(c5cccc(F)c5F)CC4)ccc3C2=O)C(=O)N1 [GT-08194, 1-(5-((4-(2,3-difluorophenyl)piperidin-1-yl)methyl)-1-oxoisoindolin-2-yl)dihydropyrimidine-2,4(1H,3H)-dione]	B (80%< substrate protein remaining %≤ 100%)	A (0% ≤ substrate protein remaining % ≤ 80%)	–	–	20 to 25	20 to 25	B (80%< substrate protein remaining %≤ 100%)	A (0% ≤ substrate protein remaining % ≤ 80%)	18 to 25	25 to 40	B (80%< substrate protein remaining %≤ 100%)	B (80%< substrate protein remaining %≤ 100%)	18 to 25	60 to 80	–	–
